Laboratory results published in patent US12509452B2, “Substituted-isoxazoline-containing aromatic compound, preparation method therefor, herbicidal composition and use thereof” (QINGDAO KINGAGROOT CHEMICAL COMPOUND CO., LTD., priority 2019, dated 2025).

Key:
Assay in all cases: weeding effect in post-emergence stage
Format in all cases: in vivo
Alopecurus japonicus = test system: Alopecurus japonicus
In short: (§1)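 Post-emergence greenhouse pot test: 2-3 leaf weeds sprayed (acetone/Tween 80 formulation plus 1.5 liter/ha methyl oleate EC) at 500, 250, 125, 60, 15, 7.5 g a.i./ha; fresh weight control rate read 3 weeks later, graded 0 (<5%) to 5 (>85%); n=3 averages.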

Beckmannia syzigachne = test system: Beckmannia syzigachne
In short: as §1

Conyza japonica = test system: Conyza japonica
In short: as §1

Rorippa indica = test system: Rorippa indica
In short: as §1

Compound | weeding effect in post-emergence stage, Alopecurus japonicus (activity level) (Alopecurus japonicus; dose 15 g a.i./ha) | weeding effect in post-emergence stage, Beckmannia syzigachne (activity level) (Beckmannia syzigachne; dose 15 g a.i./ha) | weeding effect in post-emergence stage, Conyza japonica (activity level) (Conyza japonica; dose 15 g a.i./ha) | weeding effect in post-emergence stage, Rorippa indica (activity level) (Rorippa indica; dose 15 g a.i./ha) | weeding effect in post-emergence stage, Alopecurus japonicus (activity level) (Alopecurus japonicus; dose 125 g a.i./ha) | weeding effect in post-emergence stage, Beckmannia syzigachne (activity level) (Beckmannia syzigachne; dose 125 g a.i./ha) | weeding effect in post-emergence stage, Conyza japonica (activity level) (Conyza japonica; dose 125 g a.i./ha) | weeding effect in post-emergence stage, Rorippa indica (activity level) (Rorippa indica; dose 125 g a.i./ha)
CCOC(=O)[C@@]1(COC(=O)C(=O)O)CC(c2cc(-n3c(=O)cc(C(F)(F)F)n(C)c3=O)c(F)cc2Cl)=NO1 [220(S)] | 5 (Level 5: growth control rate is above 85%) | 5 (Level 5: growth control rate is above 85%) | 5 (Level 5: growth control rate is above 85%) | 5 (Level 5: growth control rate is above 85%) | – | – | – | –
COC(=O)C1(OC)CC(c2cc(-n3c(=O)cc(C(F)(F)F)n(C)c3=O)c(F)cc2Cl)=NO1 (racemic) [Compound 226] | – | – | – | – | 5 (Level 5: growth control rate is above 85%) | 5 (Level 5: growth control rate is above 85%) | 5 (Level 5: growth control rate is above 85%) | 5 (Level 5: growth control rate is above 85%)
C=CCOC(=O)C1(C)CC(c2cc(-n3c(=O)n(C)c(=S)n(C)c3=O)c(F)cc2Cl)=NO1 (centres unmarked) [Compound 1-76] | 5 (Level 5: growth control rate is above 85%) | 5 (Level 5: growth control rate is above 85%) | 5 (Level 5: growth control rate is above 85%) | 5 (Level 5: growth control rate is above 85%) | – | – | – | –
CCOC(=O)C1(CBr)CC(c2cc(-n3c(=O)n(C)c(=S)n(C)c3=O)c(F)cc2Cl)=NO1 (racemic) [Compound 31] | – | – | – | – | 5 (Level 5: growth control rate is above 85%) | 5 (Level 5: growth control rate is above 85%) | 5 (Level 5: growth control rate is above 85%) | 5 (Level 5: growth control rate is above 85%)
CC(C)COC(=O)C1(C)CC(c2cc(-n3c(=O)n(C)c(=S)n(C)c3=O)c(F)cc2Cl)=NO1 (centres unmarked) [Compound 1-73] | 5 (Level 5: growth control rate is above 85%) | 5 (Level 5: growth control rate is above 85%) | 5 (Level 5: growth control rate is above 85%) | 5 (Level 5: growth control rate is above 85%) | – | – | – | –
CCOC(=O)COC[C@]1(C(=O)OCC)CC(c2cc(-n3c(=O)n(C)c(=S)n(C)c3=O)c(F)cc2Cl)=NO1 [54(S)] | 5 (Level 5: growth control rate is above 85%) | 5 (Level 5: growth control rate is above 85%) | 5 (Level 5: growth control rate is above 85%) | 5 (Level 5: growth control rate is above 85%) | – | – | – | –
CCOC(=O)[C@@]1(CCF)CC(c2cc(-n3c(=O)cc(C(F)(F)F)n(C)c3=O)c(F)cc2Cl)=NO1 [136(S)] | 5 (Level 5: growth control rate is above 85%) | 5 (Level 5: growth control rate is above 85%) | 5 (Level 5: growth control rate is above 85%) | 5 (Level 5: growth control rate is above 85%) | – | – | – | –
CCOC(=O)[C@]1(C(F)F)CC(c2cc(-n3c(=O)cc(C(F)(F)F)n(C)c3=O)c(F)cc2Cl)=NO1 [134(S)] | 5 (Level 5: growth control rate is above 85%) | 5 (Level 5: growth control rate is above 85%) | 5 (Level 5: growth control rate is above 85%) | 5 (Level 5: growth control rate is above 85%) | – | – | – | –
